Test results published in US11708348B2, “Protease inhibitors for treatment of coronavirus infections” (The Scripps Research Institute, priority 2021, dated 2023).

tested on: SARS-CoV-2 strain USA-WA1/2020; experiment: microbe, parasite or virus in culture; format: cell-based; settings: Severe acute respiratory syndrome coronavirus 2, HeLa-ACE2, 24 h, HeLa-ACE2 cells, SARS-CoV-2 infection, 24 h; class symbols; read-out: EC50, uM (Hela)

SMILES | EC50 [µM]
CC(C)C[C@@H](OC(=O)NC(C)C)C(=O)N1CC2(CC2)C[C@H]1C(=O)N[C@@H](C[C@@H]1CCNC1=O)C(=O)COC(F)(F)F [Compound 329, (R)-4-methyl-1-oxo-1-((S)-6-(((S)-3-oxo-l-((S)-2-oxopyrrolidin-3-yl)-4-(trifluoromethoxy)butan-2-yl)carbamoyl)-5-azaspiro[2.4]heptan-5-yl)pentan-2-yl isopropylcarbamate] | < 0.05
O=C1NCC[C@H]1C[C@H](NC(=O)[C@@H]1CC2(CC2)CN1C(=O)C12CC(C(F)F)(CO1)C2)C(=O)COC(F)(F)F [Compound 320, (S)-5-(4-(difluoromethyl)-2-oxabicyclo[2.1.1]-hexane-1-carbonyl)-N-((S)-3-oxo-1-((S)-2-oxopyrrolidin-3-yl)-4-(trifluoromethoxy)butan-2-yl)-5-azaspiro[2.4]-heptane-6-carboxamide] | 0.2 to 0.5
CC(C)C[C@H](NC(=O)C(=O)NC(C)(C)C)C(=O)N[C@@H](C[C@@H]1CCNC1=O)C(=O)COC(F)(F)F [Compound 180, N1-(tert-butyl)-N2-((S)-4-methyl-1-oxo-1-(((S)-3-oxo-1-((S)-2-oxopyrrolidin-3-yl)-4-(trifluoromethoxy)butan-2-yl)amino)pentan-2-yl)oxalamide] | < 0.05
CC(C)C[C@H](NC(=O)C(=O)Nc1ccccc1Br)C(=O)N[C@@H](C[C@@H]1CCNC1=O)C(=O)COc1c(F)c(F)cc(F)c1F [Compound 56, N1-(2-bromophenyl)-N2-((S)-4-methyl-1-oxo-1-(((S)-3-oxo-1-((S)-2-oxopyrrolidin-3-yl)-4-(2,3,5,6-tetrafluorophenoxy)butan-2-yl)amino)pentan-2-yl)oxalamide] | 0.05 to 0.2
O=C(NCC(F)(F)F)C(=O)NC(CC1CCOCC1)C(=O)N[C@@H](C[C@@H]1CCNC1=O)C(=O)COC(F)(F)F (stereo partly drawn) [Compound 267, N1-(1-oxo-1-(((S)-3-oxo-1-((S)-2-oxopyrrolidin-3-yl)-4-(trifluoromethoxy)butan-2-yl)amino)-3-(tetrahydro-2H-pyran-4-yl)propan-2-yl)-N2-(2,2,2-trifluoroethyl)-oxalamide] | 0.5 to 1
O=C(N[C@@H](CC1CCCCC1)C(=O)N[C@@H](C[C@@H]1CCNC1=O)C(=O)COc1c(F)c(F)cc(F)c1F)c1cc2ccccc2[nH]1 [Compound 5, N-((S)-3-cyclohexyl-1-oxo-1-(((S)-3-oxo-l-((S)-2-oxopyrrolidin-3-yl)-4-(2,3,5,6-tetrafluorophenoxy)butan-2-yl)amino)propan-2-yl)-1H-indole-2-carboxamide] | 0.05 to 0.2
CC(C)C[C@H](NC(=O)C(=O)Nc1ccccc1F)c1cn([C@@H](C[C@@H]2CCNC2=O)C(=O)COc2c(F)c(F)cc(F)c2F)nn1 [Compound 197, N1-(2-fluorophenyl)-N2-((S)-3-methyl-1-(1-((S)-3-oxo-1-((S)-2-oxopyrrolidin-3-yl)-4-(2,3,5,6-tetrafluorophenoxy)butan-2-yl)-1H-1,2,3-triazol-4-yl)butyl)oxalamide] | 0.5 to 1
CC1(NC(=O)C(=O)N[C@@H](CC2CC2)C(=O)N[C@@H](C[C@@H]2CCNC2=O)C(=O)COC(F)(F)F)CCOCC1 [Compound 222, N1-((S)-3-cyclopropyl-1-oxo-1-(((S)-3-oxo-1-((S)-2-oxopyrrolidin-3-yl)-4-(trifluoromethoxy)butan-2-yl)amino)propan-2-yl)-N2-(4-methyltetrahydro-2H-pyran-4-yl)oxalamide] | 0.05 to 0.2
COc1cccc2[nH]c(C(=O)N[C@@H](CC(C)C)C(=O)N[C@@H](C[C@@H]3CCCNC3=O)C(=O)COC(F)(F)F)cc12 [Compound 229, 4-methoxy-N-((S)-4-methyl-1-oxo-1-(((S)-3-oxo-1-((S)-2-oxopiperidin-3-yl)-4-(trifluoromethoxy)butan-2-yl)amino)pentan-2-yl)-1H-indole-2-carboxamide] | < 0.05
CC(C)C[C@H](NC(=O)c1csc(C(F)(F)F)n1)C(=O)N[C@@H](CC1CCNC1=O)C(=O)COC(F)(F)F (stereo partly drawn) [Compound 277, N-((2S)-4-methyl-1-oxo-1-(((2S)-3-oxo-1-(2-oxopyrrolidin-3-yl)-4-(trifluoromethoxy)butan-2-yl)amino)pentan-2-yl)-2-(trifluoromethyl)-thiazole-4-carboxamide] | < 0.05
COc1cccc(F)c1NC(=O)C(=O)N[C@@H](CC(C)C)C(=O)N[C@@H](C[C@@H]1CCNC1=O)C(=O)COC(F)(F)F [Compound 166, N1-(2-fluoro-6-methoxyphenyl)-N2-((S)-4-methyl-1-oxo-1-(((S)-3-oxo-1-((S)-2-oxopyrrolidin-3-yl)-4-(trifluoromethoxy)butan-2-yl)amino)pentan-2-yl)oxalamide] | < 0.05

same assay, conditions: Severe acute respiratory syndrome coronavirus 2, HeLa-ACE2, 24 h, HeLa-ACE2 cells, SARS-CoV-2 infection, 24 h; read-out: EC50, uM (Hela)

SMILES | EC50 [µM]
CC(C)C[C@H](NC(=O)C(=O)Nc1ccccc1F)C(=O)N[C@@H](C[C@@H]1CCNC1=O)C(=O)COc1ccnc(C(F)(F)F)n1 [Compound 788, N^1-(2-fluorophenyl)-N^2—((S)-4-methyl-1-oxo-1-(((S)-3-oxo-1-((S)-2-oxopyrrolidin-3-yl)-4-((2-(trifluoromethyl)pyrimidin-4-yl)oxy)butan-2-yl)amino)pentan-2-yl)oxalamide] | 0.2 to 0.5
CCCCCC(=O)N1CC2(CC2)C[C@H]1C(=O)N[C@@H](C[C@@H]1CCNC1=O)C(=O)COC(F)(F)F [Compound 708, (S)-5-hexanoyl-N-((S)-3-oxo-1-((S)-2-oxopyrrolidin-3-yl)-4-(trifluoromethoxy)butan-2-yl)-5-azaspiro[2.4]heptane-6-carboxamide] | 0.05 to 0.2
O=C1NCC[C@H]1C[C@H](NC(=O)[C@@H]1CC2(CC2)CN1C(=O)CC(F)(F)C(F)F)C(=O)COC(F)(F)F [Compound 684, (S)-N-((S)-3-oxo-1-((S)-2-oxopyrrolidin-3-yl)-4-(trifluoromethoxy)butan-2-yl)-5-(3,3,4,4-tetrafluorobutanoyl)-5-azaspiro[2.4]heptane-6-carboxamide] | 0.05 to 0.2
CC(C)C(=O)N1CC2(CC2)C[C@H]1C(=O)N[C@@H](C[C@@H]1CCNC1=O)C(=O)COC(F)(F)F [Compound 704, (S)-5-isobutyryl-N-((S)-3-oxo-1-((S)-2-oxopyrrolidin-3-yl)-4-(trifluoromethoxy)butan-2-yl)-5-azaspiro[2.4]heptane-6-carboxamide] | 0.05 to 0.2
O=C1NCC[C@H]1C[C@H](NC(=O)[C@@H]1CC2(CC2)CN1C(=O)CCNS(=O)(=O)Nc1ccccc1)C(=O)COC(F)(F)F [Compound 670, (S)-N-((S)-3-oxo-1-((S)-2-oxopyrrolidin-3-yl)-4-(trifluoromethoxy)butan-2-yl)-5-(3-((N-phenylsulfamoyl)amino)propanoyl)-5-azaspiro[2.4]heptane-6-carboxamide] | 0.2 to 0.5
O=C1NCC[C@H]1C[C@H](NC(=O)[C@@H]1CC2(CC2)CN1C(=O)CC1CC(F)(F)C1)C(=O)COC(F)(F)F [Compound 701, (S)-5-(2-(3,3-difluorocyclobutyl)acetyl)-N-((S)-3-oxo-1-((S)-2-oxopyrrolidin-3-yl)-4-(trifluoromethoxy)butan-2-yl)-5-azaspiro[2.4]heptane-6-carboxamide] | < 0.05
O=C(N[C@@H](C[C@@H]1CCNC1=O)C(=O)COC(F)(F)F)C1CCCCCN1C(=O)[C@@H](O)c1ccccc1 (stereo partly drawn) [Compound 768, l-((S)-2-hydroxy-2-phenylacetyl)-N-((S)-3-oxo-1-((S)-2-oxopyrrolidin-3-yl)-4-(trifluoromethoxy)butan-2-yl)azepane-2-carboxamide] | 0.05 to 0.2
CC(C)C[C@@H](NC(=O)OC(C)(C)C)C(=O)N1CC2(CC2)C[C@H]1C(=O)N[C@@H](C[C@@H]1CCNC1=O)C(=O)COC(F)(F)F [Compound 643, tert-butyl ((R)-4-methyl-1-oxo-1-((S)-6-(((S)-3-oxo-1-((S)-2-oxopyrrolidin-3-yl)-4-(trifluoromethoxy)butan-2-yl)carbamoyl)-5-azaspiro[2.4]heptan-5-yl)pentan-2-yl)carbamate] | < 0.05
CC(C)C[C@@H](O)C(=O)N1CC2(CCC2)CC1C(=O)N[C@@H](C[C@@H]1CCNC1=O)C(=O)COC(F)(F)F (stereo partly drawn) [Compound 770, 6-((R)-2-hydroxy-4-methylpentanoyl)-N-((S)-3-oxo-1-((S)-2-oxopyrrolidin-3-yl)-4-(trifluoromethoxy)butan-2-yl)-6-azaspiro[3.4]octane-7-carboxamide] | 0.05 to 0.2
CC(C)(C)NC(=O)C(=O)N1CC2(CCCCC2)CC1C(=O)N[C@@H](C[C@@H]1CCNC1=O)C(=O)COC(F)(F)F (stereo partly drawn) [Compound 531, 2-(2-(tert-butylamino)-2-oxoacetyl)-N-((S)-3-oxo-1-((S)-2-oxopyrrolidin-3-yl)-4-(trifluoromethoxy)butan-2-yl)-2-azaspiro[4.5]decane-3-carboxamide] | < 0.05
CCCC(=O)N1CC2(CC2)C[C@H]1C(=O)N[C@@H](C[C@@H]1CCNC1=O)C(=O)COC(F)(F)F [Compound 705, (S)-5-butyryl-N-((S)-3-oxo-1-((S)-2-oxopyrrolidin-3-yl)-4-(trifluoromethoxy)butan-2-yl)-5-azaspiro[2.4]heptane-6-carboxamide] | 0.2 to 0.5

same assay, conditions: Severe acute respiratory syndrome coronavirus 2, HeLa-ACE2, 24 h; read-out: EC50, uM (Hela)

SMILES | EC50 [µM]
O=C1NCC[C@H]1C[C@H](NC(=O)[C@@H]1CC2(CC2)CN1C(=O)C(F)(F)F)C(=O)COC(F)(F)F [Compound 703, (S)-N-((S)-3-oxo-1-((S)-2-oxopyrrolidin-3-yl)-4-(trifluoromethoxy)butan-2-yl)-5-(2,2,2-trifluoroacetyl)-5-azaspiro[2.4]heptane-6-carboxamide] | 0.2 to 0.5

same assay, conditions: read-out: EC50, uM (Hela)

SMILES | EC50 [µM]
O=C1NCC[C@H]1C[C@H](NC(=O)[C@@H]1[C@H]2CCC[C@H]2CN1C(=O)C1(NC(=O)C(F)(F)F)CCC1)C(=O)COC(F)(F)F [Compound 274, (1S,3aR,6aS)-N-((S)-3-oxo-1-((S)-2-oxopyrrolidin-3-yl)-4-(trifluoromethoxy)butan-2-yl)-2-(l-(2,2,2-trifluoroacetamido)-cyclobutane-1-carbonyl)octahydro-cyclopenta[c]pyrrole-l-carboxamide] | 0.2 to 0.5
